Calls of active or inactive are those of the source. The calls are words filed in the database; no cut-off is given here.
Tests used:
Trypanosoma cruzi [1] = test: Induction of golgi apparatus degeneration in trypomastigotes of Trypanosoma cruzi Y at 3.5 uM after 24 hrs by […] electron microscopic analysis; type: functional, organism-based
Mus musculus [2] = test: Toxicity in BALB/c mouse assessed as serum uric acid level at 25 mg/kg, po after 24 hrs; type: organism-based; design: dose 25 mg/kg, route oral; details: in vivo
Mus musculus [3] = test: Toxicity in BALB/c mouse assessed as serum total proteins level at 100 mg/kg, po after 24 hrs; type: organism-based; design: dose 100 mg/kg, route oral; details: in vivo
Mus musculus [4] = test: Toxicity in BALB/c mouse assessed as serum cholesterol level at 50 mg/kg, po after 24 hrs; type: organism-based; design: dose 50 mg/kg, route oral; details: in vivo
Mus musculus [5] = test: Toxicity in BALB/c mouse assessed as serum globulin level at 50 mg/kg, po after 24 hrs; type: organism-based; design: dose 50 mg/kg, route oral; details: in vivo
Mus musculus [6] = test: Toxicity in BALB/c mouse assessed as serum globulin level at 25 mg/kg, po after 24 hrs; type: organism-based; design: dose 25 mg/kg, route oral; details: in vivo
Mus musculus [7] = test: Toxicity in BALB/c mouse assessed as serum total proteins level at 50 mg/kg, po after 24 hrs; type: organism-based; design: dose 50 mg/kg, route oral; details: in vivo
Trypanosoma cruzi [8] = test: Induction of kinetoplast enlargement in trypomastigotes of Trypanosoma cruzi Y at 3.5 uM after 24 hrs by […] electron microscopic analysis; type: functional, organism-based
Mus musculus [9] = test: Toxicity in BALB/c mouse assessed as serum ALB level at 25 mg/kg, po after 24 hrs; type: organism-based; design: dose 25 mg/kg, route oral; details: in vivo
Mus musculus [10] = test: Toxicity in BALB/c mouse assessed as serum BUN level at 50 mg/kg, po after 24 hrs; type: organism-based; design: dose 50 mg/kg, route oral; details: in vivo
Trypanosoma cruzi [11] = test: Induction of ultrastructural changes in trypomastigotes of Trypanosoma cruzi Y assessed as plasma membrane protrusions at 10 uM after 24 hrs by scanning electron microscopic analysis; type: functional
Mus musculus [12] = test: Toxicity in BALB/c mouse assessed as serum globulin level at 100 mg/kg, po after 24 hrs; type: organism-based; design: dose 100 mg/kg, route oral; details: in vivo
Mus musculus [13] = test: Toxicity in BALB/c mouse assessed as serum GGT level at 25 mg/kg, po after 24 hrs; type: organism-based; design: dose 25 mg/kg, route oral; details: in vivo
Mus musculus [14] = test: Toxicity in BALB/c mouse assessed as serum ALT level at 25 mg/kg, po after 24 hrs; type: organism-based; design: dose 25 mg/kg, route oral; details: in vivo
Trypanosoma cruzi [15] = test: Antitrypanosomal activity against trypomastigotes of Trypanosoma cruzi Y infected in BALB/c mouse assessed as reduction of parasite level in blood at 50 mg/kg, po administered after 5 days of postinfection qd for 5 days; type: functional, organism-based; design: dose 50 mg/kg
Mus musculus [16] = test: Toxicity in BALB/c mouse assessed as serum GGT level at 100 mg/kg, po after 24 hrs; type: organism-based; design: dose 100 mg/kg, route oral; details: in vivo
Mus musculus [17] = test: Toxicity in BALB/c mouse assessed as serum cholesterol level at 100 mg/kg, po after 24 hrs; type: organism-based; design: dose 100 mg/kg, route oral; details: in vivo
Mus musculus [18] = test: Toxicity in BALB/c mouse assessed as serum Ca2+ level at 25 mg/kg, po after 24 hrs; type: organism-based; design: dose 25 mg/kg, route oral; details: in vivo
Mus musculus [19] = test: Toxicity in BALB/c mouse assessed as serum AML level at 100 mg/kg, po after 24 hrs; type: organism-based; design: dose 100 mg/kg, route oral; details: in vivo
Mus musculus [20] = test: Toxicity in BALB/c mouse assessed as serum AML level at 25 mg/kg, po after 24 hrs; type: organism-based; design: dose 25 mg/kg, route oral; details: in vivo
Mus musculus [21] = test: Toxicity in BALB/c mouse assessed as mortality at 25 to 100 mg/kg, po; type: organism-based; design: dose 25-100 mg/kg, route oral; details: in vivo
Mus musculus [22] = test: Toxicity in BALB/c mouse assessed as serum ALB level at 100 mg/kg, po after 24 hrs; type: organism-based; design: dose 100 mg/kg, route oral; details: in vivo
Trypanosoma cruzi [23] = test: Antitrypanosomal activity against trypomastigotes of Trypanosoma cruzi Y in BALB/c mouse peritoneal exudate macrophages assessed as reduction of parasite infection to cells at 10 ug/ml treated simultaneously with parasite measured after 2 hrs; type: functional, organism-based
Mus musculus [24] = test: Toxicity in BALB/c mouse assessed as serum ALB level at 50 mg/kg, po after 24 hrs; type: organism-based; design: dose 50 mg/kg, route oral; details: in vivo
Trypanosoma cruzi [25] = test: Induction of mitochondria degeneration in trypomastigotes of Trypanosoma cruzi Y at 3.5 uM after 24 hrs by […] electron microscopic analysis; type: functional, organism-based
Trypanosoma cruzi [26] = test: Antitrypanosomal activity against trypomastigotes of Trypanosoma cruzi Y infected in BALB/c mouse peritoneal exudate macrophages assessed as reduction of parasite level at 10 ug/ml after 4 days; type: functional, organism-based
[27] = Therapeutic index, ratio of LC50 for BALB/c mouse splenocytes to IC50 for Trypanosoma cruzi Y; details: read-out: Ratio LC50/IC50
Trypanosoma cruzi [28] = test: Antitrypanosomal activity against trypomastigotes of Trypanosoma cruzi Y infected in rhesus monkey LLC-MK2 cells assessed parasite viability after 24 hrs; type: functional, organism-based; details: LLC-MK2, 24 h
Mus musculus [29] = test: Toxicity in BALB/c mouse assessed as serum BUN level at 25 mg/kg, po after 24 hrs; type: organism-based; design: dose 25 mg/kg, route oral; details: in vivo
Mus musculus [30] = test: Toxicity in BALB/c mouse assessed as serum ALT level at 50 mg/kg, po after 24 hrs; type: organism-based; design: dose 50 mg/kg, route oral; details: in vivo
Mus musculus [31] = test: Toxicity in BALB/c mouse assessed as serum cholesterol level at 25 mg/kg, po after 24 hrs; type: organism-based; design: dose 25 mg/kg, route oral; details: in vivo
[32] = target: Cruzipain (Trypanosoma cruzi) (UniProt P25779); test: Inhibition of Trypanosoma cruzi cruzain using Z-Phe-Arg-aminomethylcoumarin as substrate at 100 uM after 10 mins
Mus musculus [33] = test: Toxicity in BALB/c mouse assessed as serum Ca2+ level at 100 mg/kg, po after 24 hrs; type: organism-based; design: dose 100 mg/kg, route oral; details: in vivo
Mus musculus [34] = test: Toxicity in BALB/c mouse assessed as serum alkaline phosphatase level at 100 mg/kg, po after 24 hrs; type: organism-based; design: dose 100 mg/kg, route oral; details: in vivo
[35] = Cytotoxicity against BALB/c mouse splenocytes after 24 hrs by [3H]-thymidine incorporation assay; type: cell-based, Splenocyte; details: read-out: LC50
Mus musculus [36] = test: Toxicity in BALB/c mouse assessed as serum AML level at 50 mg/kg, po after 24 hrs; type: organism-based; design: dose 50 mg/kg, route oral; details: in vivo
Mus musculus [37] = test: Toxicity in BALB/c mouse assessed as serum ALT level at 100 mg/kg, po after 24 hrs; type: organism-based; design: dose 100 mg/kg, route oral; details: in vivo
Trypanosoma cruzi [38] = test: Induction of endoplasmic reticulum degeneration in trypomastigotes of Trypanosoma cruzi Y at 3.5 uM after 24 hrs by […] electron microscopic analysis; type: functional, organism-based
Mus musculus [39] = test: Toxicity in BALB/c mouse assessed as serum GGT level at 50 mg/kg, po after 24 hrs; type: organism-based; design: dose 50 mg/kg, route oral; details: in vivo
Mus musculus [40] = test: Toxicity in BALB/c mouse assessed as serum Ca2+ level at 50 mg/kg, po after 24 hrs; type: organism-based; design: dose 50 mg/kg, route oral; details: in vivo
Mus musculus [41] = test: Toxicity in BALB/c mouse assessed as serum uric acid level at 100 mg/kg, po after 24 hrs; type: organism-based; design: dose 100 mg/kg, route oral; details: in vivo
Mus musculus [42] = test: Toxicity in BALB/c mouse assessed as serum total proteins level at 25 mg/kg, po after 24 hrs; type: organism-based; design: dose 25 mg/kg, route oral; details: in vivo
Mus musculus [43] = test: Toxicity in BALB/c mouse assessed as serum BUN level at 100 mg/kg, po after 24 hrs; type: organism-based; design: dose 100 mg/kg, route oral; details: in vivo
Mus musculus [44] = test: Toxicity in BALB/c mouse assessed as serum uric acid level at 50 mg/kg, po after 24 hrs; type: organism-based; design: dose 50 mg/kg, route oral; details: in vivo
Mus musculus [45] = test: Toxicity in BALB/c mouse assessed as serum alkaline phosphatase level at 25 mg/kg, po after 24 hrs; type: organism-based; design: dose 25 mg/kg, route oral; details: in vivo
Mus musculus [46] = test: Toxicity in BALB/c mouse assessed as serum alkaline phosphatase level at 50 mg/kg, po after 24 hrs; type: organism-based; design: dose 50 mg/kg, route oral; details: in vivo
Trypanosoma cruzi [47] = test: Antitrypanosomal activity against epimastigotes of Trypanosoma cruzi Y after 5 days; type: functional, organism-based; details: 120 h
Trypanosoma cruzi [48] = test: Antitrypanosomal activity against trypomastigotes of Trypanosoma cruzi Y infected in BALB/c mouse assessed as reduction of parasite level in blood at 100 mg/kg, po administered after 5 days of postinfection qd for 5 days; type: functional, organism-based; design: dose 100 mg/kg
Cruzipain = Cruzipain (Trypanosoma cruzi, UniProt P25779); test: Inhibition of Trypanosoma cruzi cruzain using Z-Phe-Arg-aminomethylcoumarin as substrate after 10 mins
Chain of Cruzipain (P25779 whole entry): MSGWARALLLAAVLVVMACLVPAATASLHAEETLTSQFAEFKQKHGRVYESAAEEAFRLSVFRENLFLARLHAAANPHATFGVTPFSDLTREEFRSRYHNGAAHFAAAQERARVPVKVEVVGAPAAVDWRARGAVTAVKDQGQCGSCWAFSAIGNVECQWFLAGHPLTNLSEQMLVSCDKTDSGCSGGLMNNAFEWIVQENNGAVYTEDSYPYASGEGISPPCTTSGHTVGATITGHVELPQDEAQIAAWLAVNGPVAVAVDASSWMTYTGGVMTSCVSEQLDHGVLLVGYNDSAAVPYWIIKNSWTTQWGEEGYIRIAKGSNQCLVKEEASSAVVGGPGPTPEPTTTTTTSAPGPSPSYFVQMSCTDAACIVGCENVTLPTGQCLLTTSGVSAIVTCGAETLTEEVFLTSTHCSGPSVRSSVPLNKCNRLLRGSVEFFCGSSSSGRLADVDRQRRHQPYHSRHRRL

Chain of Cruzipain (Trypanosoma cruzi) (P25779 123-467 limits assumed): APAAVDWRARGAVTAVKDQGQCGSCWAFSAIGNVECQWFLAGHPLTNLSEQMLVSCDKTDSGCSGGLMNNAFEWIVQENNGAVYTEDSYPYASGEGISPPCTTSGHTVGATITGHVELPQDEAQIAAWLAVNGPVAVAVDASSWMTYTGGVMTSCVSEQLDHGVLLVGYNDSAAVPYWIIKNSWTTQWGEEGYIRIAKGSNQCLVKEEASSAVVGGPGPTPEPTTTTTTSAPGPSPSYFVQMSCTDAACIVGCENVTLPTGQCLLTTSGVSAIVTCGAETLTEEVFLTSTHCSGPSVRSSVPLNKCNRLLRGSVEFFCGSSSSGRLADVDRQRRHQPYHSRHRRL

SMILES: O=C(N/N=C/c1ccc2c(c1)OCO2)c1nc(-c2ccc(Cl)cc2)no1
- Activity (Trypanosoma cruzi [1]): Active
- Activity (Mus musculus [2]): 1.65 mg/dL
- Activity (Mus musculus [3]): 5.1 g/dL
- Activity (Mus musculus [4]): 59.5 mg/dL
- Activity (Mus musculus [5]): 2.16 g/dL
- Activity (Mus musculus [6]): 2.4 g/dL
- Activity (Mus musculus [7]): 4.86 g/dL
- Activity (Trypanosoma cruzi [8]): Active
- Activity (Mus musculus [9]): 2.35 g/dL
- Activity (Mus musculus [10]): 18.07 mg/dL
- Activity (Trypanosoma cruzi [11]): 80%
- Activity (Mus musculus [12]): 2.73 g/dL
- Activity (Mus musculus [13]): 1 U/L
- Activity (Mus musculus [14]): 32.5 U/L
- Activity (Trypanosoma cruzi [15]): Active
- Activity (Mus musculus [16]): 1 U/L
- Activity (Mus musculus [17]): 54.5 mg/dL
- Activity (Mus musculus [18]): 9.45 mg/dL
- Activity (Mus musculus [19]): 1170 U/L
- Activity (Mus musculus [20]): 1183 U/L
- Activity (Mus musculus [21]): Non-toxic
- Activity (Mus musculus [22]): 2.36 g/dL
- Activity (Trypanosoma cruzi [23]): Active
- Activity (Mus musculus [24]): 2.67 g/dL
- Activity (Trypanosoma cruzi [25]): Active
- Activity (Trypanosoma cruzi [26]): Active
- selectivity ratio [27]: 50
- IC50 (Trypanosoma cruzi [28]): 3.5 µM
- Activity (Mus musculus [29]): 17.8 mg/dL
- Activity (Mus musculus [30]): 36 U/L
- Activity (Mus musculus [31]): 53 mg/dL
- inhibition [32]: 42%
- Activity (Mus musculus [33]): 9.56 mg/dL
- Activity (Mus musculus [34]): 155.5 U/L
- CC50 at 24 h [35]: > 100 µg/mL
- Activity (Mus musculus [36]): 1268 U/L
- Activity (Mus musculus [37]): 29.67 U/L
- Activity (Trypanosoma cruzi [38]): Active
- Activity (Mus musculus [39]): 0.67 U/L
- Activity (Mus musculus [40]): 9.45 mg/dL
- Activity (Mus musculus [41]): 2 mg/dL
- Activity (Mus musculus [42]): 4.75 g/dL
- Activity (Mus musculus [43]): 13.7 mg/dL
- Activity (Mus musculus [44]): 1.46 mg/dL
- Activity (Mus musculus [45]): 148 U/L
- Activity (Mus musculus [46]): 142.7 U/L
- IC50 (Trypanosoma cruzi [47]): 7.5 µM

SMILES: COc1cc(/C=N/NC(=O)c2nc(-c3ccc([N+](=O)[O-])cc3)no2)ccc1O
- inhibition [32]: 47%
- CC50 at 24 h [35]: > 100 µg/mL

SMILES: O=C(N/N=C/c1ccc2c(c1)OCO2)c1nc(-c2ccc(O)cc2)no1
- inhibition [32]: 17%
- CC50 at 24 h [35]: > 100 µg/mL

SMILES: O=C(Cn1ccnc1[N+](=O)[O-])NCc1ccccc1 [BENZNIDAZOLE]
- Activity (Trypanosoma cruzi [48]): Active
- IC50 (Trypanosoma cruzi [28]): 11.3 µM
- IC50 (Trypanosoma cruzi [47]): 7.5 µM

SMILES: COc1ccc(-c2noc(C(=O)N/N=C/c3ccc(O)c(OC)c3)n2)cc1
- inhibition [32]: 35%
- CC50 at 24 h [35]: > 100 µg/mL

SMILES: O=C(N/N=C/c1ccc2c(c1)OCO2)c1nc(-c2ccc(Br)cc2)no1
- Activity (Trypanosoma cruzi [26]): inactive
- IC50 (Trypanosoma cruzi [28]): 13.4 µM
- inhibition [32]: 95%
- CC50 at 24 h [35]: > 100 µg/mL
- IC50 (Cruzipain): 0.03 µM
- IC50 (Trypanosoma cruzi [47]): 14 µM

SMILES: COc1cc(/C=N/NC(=O)c2nc(-c3ccc(C)cc3)no2)ccc1O
- inhibition [32]: 14%
- CC50 at 24 h [35]: > 100 µg/mL

SMILES: COc1cc(/C=N/NC(=O)c2nc(-c3ccc(Br)cc3)no2)ccc1O
- inhibition [32]: 100%
- CC50 at 24 h [35]: > 100 µg/mL
- IC50 (Cruzipain): 0.2 µM

SMILES: COc1cc(/C=N/NC(=O)c2nc(-c3ccccc3)no2)ccc1O
- inhibition [32]: 47%
- CC50 at 24 h [35]: > 100 µg/mL

— ChEMBL document CHEMBL2157907, “Optimization of anti-Trypanosoma cruzi oxadiazoles leads to identification of compounds with efficacy in infected mice” (Bioorg Med Chem, 2012)
